Measured values as given in publication PMC6402343 (ACS chemical biology, 2019).

Legend:
RhlR [1] = molecular target: T1, RhlR (Pseudomonas aeruginosa, UniProt P54292); test: E. coli RhlR reporter; format: cell-based; settings: E. coli RhlR reporter strain; for EC50: dose-response; for Max. RhlR Activation: efficacy
RhlR [2] = molecular target: T1, RhlR; test: P. aeruginosa PAO-JP2 RhlR reporter; format: cell-based; settings: for EC50 / Max. RhlR Activation: P. aeruginosa RhlR reporter strain; for EC50: dose-response; for Max. RhlR Activation: efficacy

T1 sequence (P54292 whole entry): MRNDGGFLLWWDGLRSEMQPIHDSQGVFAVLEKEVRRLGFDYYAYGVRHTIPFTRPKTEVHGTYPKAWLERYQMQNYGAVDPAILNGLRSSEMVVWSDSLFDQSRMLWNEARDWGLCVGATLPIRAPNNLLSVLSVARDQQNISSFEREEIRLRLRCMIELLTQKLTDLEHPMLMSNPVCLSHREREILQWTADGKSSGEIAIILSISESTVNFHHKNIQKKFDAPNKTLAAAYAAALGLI

SMILES | EC50 (RhlR [1]) | Max. RhlR Activation (RhlR [1]) | EC50 (RhlR [2]) | Max. RhlR Activation (RhlR [2]) | fold lower potency in P. aeruginosa relative to E. coli (RhlR [2]; ratio of EC50 values in the two RhlR reporters)
CCCC(=O)N[C@H]1CCOC1=O [BHL, N-butyryl HL] | 8.95 µM | 100% | 8.08 µM | 100% | –
CC(C)CC(=O)N[C@H]1CCOC1=O [Compound 7, isovaleryl HL] | 1.02 µM | 110% | 1.42 µM | 94% | –
CC(C)CC(=O)NC1CCSC1=O (centres unmarked) [Compound 37, isovaryl homocysteine thiolactone] | 0.463 µM | 93% | 2.58 µM | 91% | ~ 5 fold
O=C(NC1CCOC1=O)C1CCC1 (centres unmarked) [Compound 17, cyclobutyl HL] | 1.78 µM | 100% | 1.41 µM | 96% | –
